According to BindingDB's records for doi:10.1016/j.bmcl.2009.08.049 (Genentech, 2009):

target: Sonic hedgehog protein (Mus musculus, UniProt Q62226); experiment: Inhibition of SHH in mouse C3H10T1/2 cells by Gli-luciferase reporter gene assay
Sequence (Q62226 25-198 limits assumed): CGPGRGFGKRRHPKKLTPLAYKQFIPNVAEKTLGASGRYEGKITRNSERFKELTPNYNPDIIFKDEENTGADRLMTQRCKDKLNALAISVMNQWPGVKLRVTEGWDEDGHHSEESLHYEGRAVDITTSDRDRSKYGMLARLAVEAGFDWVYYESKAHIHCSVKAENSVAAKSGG

| SMILES | IC50 |
| --- | --- |
| O=C(Nc1ccc(Cl)c(-c2ccccn2)c1)c1ccccc1Cl [2-chloro-N-(4-chloro-3-(pyridin-2-yl)phenyl)benzamide] | 0.11 µM |
| O=C(Nc1ccc(Cl)c(-c2ccccn2)c1)c1cccc(Cl)c1 [3-chloro-N-(4-chloro-3-(pyridin-2-yl)phenyl)benzamide] | 1.5 µM |
| O=C(Nc1ccc(Cl)c(-c2ccccn2)c1)c1ccc(Cl)cc1 [4-chloro-N-(4-chloro-3-(pyridin-2-yl)phenyl)benzamide] | 1.5 µM |
| Cc1nc(C(F)(F)F)ccc1C(=O)Nc1ccc(Cl)c(-c2nc3ccccc3[nH]2)c1 [N-(3-(1H-benzo[d]imidazol-2-yl)-4-chlorophenyl)-2-methyl-6-(trifluoromethyl)nicotinamide] | 0.012 µM |
| Cc1nc(C(F)(F)F)ccc1C(=O)Nc1ccc(Cl)c(-c2nc3ccccc3s2)c1 [N-(3-(benzo[d]thiazol-2-yl)-4-chlorophenyl)-2-methyl-6-(trifluoromethyl)nicotinamide] | 0.07 µM |
| Cc1nc(C(F)(F)F)ccc1C(=O)Nc1ccc(Cl)c(-c2nc3ccccc3n2C)c1 [N-(4-chloro-3-(1-methyl-1H-benzo[d]imidazol-2-yl)phenyl)-2-methyl-6-(trifluoromethyl)nicotinamide] | 0.009 µM |
| Cc1nc(C(F)(F)F)ccc1C(=O)Nc1ccc(Cl)c(-c2ccn(C)n2)c1 [N-(4-chloro-3-(1-methyl-1H-pyrazol-3-yl)phenyl)-2-methyl-6-(trifluoromethyl)nicotinamide] | 0.55 µM |
| Cc1nc(C(F)(F)F)ccc1C(=O)Nc1ccc(Cl)c(-c2nc3c(n2C)CCCC3)c1 [N-(4-chloro-3-(1-methyl-4,5,6,7-tetrahydro-1H-benzo[d]imidazol-2-yl)phenyl)-2-methyl-6-(trifluoromethyl)nicotinamide] | 0.15 µM |
| Cc1nc(C(F)(F)F)ccc1C(=O)Nc1ccc(Cl)c(-c2cc3ccccc3[nH]2)c1 [N-(4-chloro-3-(1H-indol-2-yl)phenyl)-2-methyl-6-(trifluoromethyl)nicotinamide] | 0.5 µM |
| Cc1nc(C(F)(F)F)ccc1C(=O)Nc1ccc(Cl)c(-n2cccn2)c1 [N-(4-chloro-3-(1H-pyrazol-1-yl)phenyl)-2-methyl-6-(trifluoromethyl)nicotinamide] | 0.45 µM |
| Cc1nc(C(F)(F)F)ccc1C(=O)Nc1ccc(Cl)c(-c2cc[nH]n2)c1 [N-(4-chloro-3-(1H-pyrazol-3-yl)phenyl)-2-methyl-6-(trifluoromethyl)nicotinamide] | 9 µM |
| Cc1nc(C(F)(F)F)ccc1C(=O)Nc1ccc(Cl)c(-n2cc3ccccc3n2)c1 [N-(4-chloro-3-(2H-indazol-2-yl)phenyl)-2-methyl-6-(trifluoromethyl)nicotinamide] | 0.08 µM |
| Cc1c[nH]c(-c2cc(NC(=O)c3ccc(C(F)(F)F)nc3C)ccc2Cl)n1 [N-(4-chloro-3-(5-methyl-1H-imidazol-2-yl)phenyl)-2-methyl-6-(trifluoromethyl)nicotinamide] | 0.256 µM |
| Cc1nc(C(F)(F)F)ccc1C(=O)Nc1ccc(Cl)c(-c2cn3ccsc3n2)c1 [N-(4-chloro-3-(imidazo[2,1-b]thiazol-6-yl)phenyl)-2-methyl-6-(trifluoromethyl)nicotinamide] | 0.2 µM |
| Cc1nc(C(F)(F)F)ccc1C(=O)Nc1ccc(Cl)c(-c2cc3ccccn3c2)c1 [N-(4-chloro-3-(indolizin-2-yl)phenyl)-2-methyl-6-(trifluoromethyl)nicotinamide] | 4.2 µM |
| Cc1nc(C(F)(F)F)ccc1C(=O)Nc1ccc(Cl)c(C(=O)Nc2ccccc2)c1 [N-(4-chloro-3-(phenylcarbamoyl)phenyl)-2-methyl-6-(trifluoromethyl)nicotinamide] | 0.14 µM |
| Cc1nc(C(F)(F)F)ccc1C(=O)Nc1ccc(Cl)c(-c2cnccn2)c1 [N-(4-chloro-3-(pyrazin-2-yl)phenyl)-2-methyl-6-(trifluoromethyl)nicotinamide] | 1.7 µM |
| Cc1nc(C(F)(F)F)ccc1C(=O)Nc1ccc(Cl)c(-c2cc3ccccn3n2)c1 [N-(4-chloro-3-(pyrazolo[1,5-a]pyridin-2-yl)phenyl)-2-methyl-6-(trifluoromethyl)nicotinamide] | 0.17 µM |
| Cc1ccc(C(=O)Nc2ccc(Cl)c(-c3ccccn3)c2)c(C)n1 [N-(4-chloro-3-(pyridin-2-yl)phenyl)-2,6-dimethylnicotinamide] | 0.13 µM |
| Cc1nc(C(F)(F)F)ccc1C(=O)Nc1ccc(Cl)c(-c2ccccn2)c1 [N-(4-chloro-3-(pyridin-2-yl)phenyl)-2-methyl-6-(trifluoromethyl)nicotinamide] | 0.042 µM |
| CS(=O)(=O)c1cccc(C(=O)Nc2ccc(Cl)c(-c3ccccn3)c2)c1 [N-(4-chloro-3-(pyridin-2-yl)phenyl)-3-(methylsulfonyl)benzamide] | 0.12 µM |
| CS(=O)(=O)c1ccc(C(=O)Nc2ccc(Cl)c(-c3ccccn3)c2)cc1 [N-(4-chloro-3-(pyridin-2-yl)phenyl)-4-(methylsulfonyl)benzamide] | 0.04 µM |
| O=C(Nc1ccc(Cl)c(-c2ccccn2)c1)c1ccccc1 [N-(4-chloro-3-(pyridin-2-yl)phenyl)benzamide] | 0.8 µM |
| O=C(Nc1ccc(Cl)c(-c2ccccn2)c1)c1ccncc1 [N-(4-chloro-3-(pyridin-2-yl)phenyl)isonicotinamide] | 0.7 µM |
| O=C(Nc1ccc(Cl)c(-c2ccccn2)c1)c1cccnc1 [N-(4-chloro-3-(pyridin-2-yl)phenyl)nicotinamide] | 0.6 µM |
| O=C(Nc1ccc(Cl)c(-c2ccccn2)c1)c1ccccn1 [N-(4-chloro-3-(pyridin-2-yl)phenyl)picolinamide] | 3 µM |
| Cc1nc(C(F)(F)F)ccc1C(=O)Nc1ccc(Cl)c(-c2cccnc2)c1 [N-(4-chloro-3-(pyridin-3-yl)phenyl)-2-methyl-6-(trifluoromethyl)nicotinamide] | 10 µM |
| Cc1nc(C(F)(F)F)ccc1C(=O)Nc1ccc(Cl)c(-c2ccncc2)c1 [N-(4-chloro-3-(pyridin-4-yl)phenyl)-2-methyl-6-(trifluoromethyl)nicotinamide] | 2.4 µM |
| Cc1nc(C(F)(F)F)ccc1C(=O)Nc1ccc(Cl)c(-c2ncccn2)c1 [N-(4-chloro-3-(pyrimidin-2-yl)phenyl)-2-methyl-6-(trifluoromethyl)nicotinamide] | 8 µM |
| Cc1nc(C(F)(F)F)ccc1C(=O)Nc1ccc(Cl)c(-c2cnc3ccccc3n2)c1 [N-(4-chloro-3-(quinoxalin-2-yl)phenyl)-2-methyl-6-(trifluoromethyl)nicotinamide] | 0.052 µM |
